In patent publication US20070238700A1, “N-PHENYL-1,1,1-TRIFLUOROMETHANESULFONAMIDE HYDRAZONE DERIVATIVE COMPOUNDS AND THEIR USAGE IN CONTROLLING PARASITES” (priority 2006, published 2007):
Read-outs that look alike come from different tables or passages of the source.

Test system: Ctenocephalides felis
Protocol: b) Ctenocephalides felis Adulticide Assay: C. felis Single Dose Screen
Mortality of fleas was the primary endpoint in the assay. Fleas were considered dead if they didn't move or were on their sides and unable to walk or right themselves. […] The concentration chosen (1.26 μg/cm^2) was higher than that known to kill 90% of cat fleas (LC90) using the reference compound, permethrin.
The test species was the cat flea (Ctenocephalides felis). The strain used was obtained from external suppliers as pupae and held in the laboratory under testing conditions until the adults had emerged. Fifteen (15) fleas were used in a minimum of four replicates against a single concentration level (approximately 60 fleas). The insects were selected to be in the adult life stage, aged between 3 and 7 days post emergence.
The compounds to be tested were supplied as solids and were prepared in acetone as described below prior to testing. Samples were stored in a refrigerator (5±1° C.) unless otherwise specified.
During the mortality testing, the temperature was maintained at 25±1° C. Humidity was maintained at 75±5%. The base (area=159 mm^2) of a 100 mL glass Erlenmeyer (conical) flask provided the treatment surface. Flasks were pretreated with Coatasil™ glass treatment to maximise bio-availability of test compounds by preventing them from binding to glass the surface. The base of the 100 mL Erlenmeyer flask was treated with 0.5 mL of test sample in acetone and gently swirled. This volume was sufficient to cover the base of the flask. Flasks were left to dry for 24 hours before flea exposure.
Adult cat fleas were placed into a sorting chamber, which allowed fleas to jump into the Erlenmeyer flasks. Fifteen (15) adult cat fleas were collected in each flask. The top of the flasks were then covered in Parafilm™ and small holes were made to allow gas exchange. A 0.5 mL volume of acetone as a solvent control was applied to the base of an Erlenmeyer flask and the testing proceeded in the same manner described above. Cat fleas in the treatment containers were held under testing conditions for 8, 24 and/or 48 hours. Mortality was recorded at 8, 24, 8 and 24, or 24 and 48 hours Pooled 8, 24, 8 and 24, and 24 and 48 hour mortality data were converted to percentages and are summarized by Table 21, below.

Cn1nccc1-c1cc(Cl)ccc1NS(=O)(=O)C(F)(F)F (single isomer, unassigned) [Compound 93, N-[2-(1-methyl-1H-pyrazol-5-yl)-4-chlorophenyl]-trifluoromethanesulfonamide]
C. felis Mortality (%) 8 h (8 h): 5% | C. felis Mortality (%) 24 h (24 h): 9%

CN(N=C(c1ccccc1)c1cc(Cl)ccc1NS(=O)(=O)C(F)(F)F)c1ccccc1 (single isomer, unassigned) [Compound 117]
C. felis Mortality (%) 8 h (8 h, data from laboratory 1): 12% | C. felis Mortality (%) 24 h (24 h, data from laboratory 1): 59%

CN(N=C(c1ccccc1)c1cc(Cl)ccc1NS(=O)(=O)C(F)(F)F)c1ccccc1 (single isomer, unassigned) [Compound 118]
C. felis Mortality (%) 8 h (8 h, data from laboratory 1): 6% | C. felis Mortality (%) 24 h (24 h, data from laboratory 1): 27%

CC(=NNc1ccccc1)c1cc(Cl)ccc1NS(=O)(=O)C(F)(F)F [Compound 12, N-[2-(1-phenylhydrazono)ethyl-4-chlorophenyl]-trifluoromethanesulfonamide]
C. felis Mortality (%) 8 h: 20^B %

CC(=NN(C)c1ccc(Cl)cc1Cl)c1cc(Cl)ccc1N(C)S(=O)(=O)C(F)(F)F [Compound 29]
C. felis Mortality (%) 24 h (24 h, data from laboratory 1): 0% | C. felis Mortality (%) 48 h (data from laboratory 1): 58%

CCCN(N=C(C)c1cc(Cl)ccc1NS(=O)(=O)C(F)(F)F)c1ccc(Cl)cc1Cl [Compound 31]
C. felis Mortality (%) 24 h (24 h, data from laboratory 1): 85% | C. felis Mortality (%) 48 h (data from laboratory 1): 100%

CC(=NN(c1ccc(Cl)cc1Cl)C(C)C)c1cc(Cl)ccc1NS(=O)(=O)C(F)(F)F [Compound 32]
C. felis Mortality (%) 24 h (24 h, data from laboratory 1): 41% | C. felis Mortality (%) 48 h (data from laboratory 1): 100%

CC(=NN(C)c1ccccc1Cl)c1cc(Cl)ccc1N(C)S(=O)(=O)C(F)(F)F [Compound 40]
C. felis Mortality (%) 24 h (24 h, data from laboratory 1): 0% | C. felis Mortality (%) 48 h (data from laboratory 1): 13%

CCCN(N=C(C)c1cc(Cl)ccc1NS(=O)(=O)C(F)(F)F)c1ccccc1Cl [Compound 42]
C. felis Mortality (%) 24 h (24 h, data from laboratory 1): 67% | C. felis Mortality (%) 48 h (data from laboratory 1): 100%

CCCN(N=C(C)c1cc(Cl)ccc1NS(=O)(=O)C(F)(F)F)c1ccccc1F [Compound 45]
C. felis Mortality (%) 24 h (24 h, data from laboratory 1): 27% | C. felis Mortality (%) 48 h (data from laboratory 1): 100%

CC(=NN(c1ccccc1F)C(C)C)c1cc(Cl)ccc1NS(=O)(=O)C(F)(F)F [Compound 46]
C. felis Mortality (%) 8 h (8 h, data from laboratory 1): 44% | C. felis Mortality (%) 24 h (24 h, data from laboratory 1): 100%

CC(=NN(c1ccc(Br)cc1)C(C)C)c1cc(Cl)ccc1NS(=O)(=O)C(F)(F)F [Compound 52]
C. felis Mortality (%) 8 h (8 h, data from laboratory 1): 51% | C. felis Mortality (%) 24 h (24 h, data from laboratory 1): 100%

CC(=NNC(=O)c1ccc(Cl)cc1)c1cc(Cl)ccc1NS(=O)(=O)C(F)(F)F [Compound 57, N-[2-[1-(4-chlorobenzoyl)hydrazono]ethyl-4-chlorophenyl]-trifluoromethanesulfonamide]
C. felis Mortality (%) 8 h: 6% | C. felis Mortality (%) 24 h: 70%

CC(=NNC(=O)c1ccccc1Cl)c1cc(Cl)ccc1NS(=O)(=O)C(F)(F)F [Compound 58]
C. felis Mortality (%) 8 h (8 h, data from laboratory 1): 2% | C. felis Mortality (%) 24 h (24 h, data from laboratory 1): 13%

CC(=NNC(=O)c1ccc(Cl)cc1Cl)c1cc(Cl)ccc1NS(=O)(=O)C(F)(F)F [Compound 61]
C. felis Mortality (%) 8 h (8 h, data from laboratory 1): 12% | C. felis Mortality (%) 24 h (24 h, data from laboratory 1): 45%

CC(=NN(C)c1ccc(F)cc1)c1cc(Cl)ccc1NS(=O)(=O)C(F)(F)F [Compound 64]
C. felis Mortality (%) 8 h (8 h, data from laboratory 1): 1% | C. felis Mortality (%) 24 h (24 h, data from laboratory 1): 50%

CC(=NN(c1cc(Cl)cc(Cl)c1)C(C)C)c1cc(Cl)ccc1NS(=O)(=O)C(F)(F)F [Compound 67]
C. felis Mortality (%) 8 h (8 h, data from laboratory 1): 20% | C. felis Mortality (%) 24 h (24 h, data from laboratory 1): 85%

CC(=NN(c1ccc(Cl)c(Cl)c1)C(C)C)c1cc(Cl)ccc1NS(=O)(=O)C(F)(F)F [Compound 68]
C. felis Mortality (%) 8 h (8 h, data from laboratory 1): 18% | C. felis Mortality (%) 24 h (24 h, data from laboratory 1): 73%

CCN(N=C(C)c1cc(Cl)ccc1NS(=O)(=O)C(F)(F)F)c1cccc(Cl)c1Cl [Compound 69]
C. felis Mortality (%) 8 h (8 h, data from laboratory 1): 39% | C. felis Mortality (%) 24 h (24 h, data from laboratory 1): 92%

COC(=O)NN=C(C)c1cc(Cl)ccc1NS(=O)(=O)C(F)(F)F [Compound 78, N-[2-[1-(methoxycarbonylhydrazono)ethyl]-4-chlorophenyl]-trifluoromethanesulfonamide]
C. felis Mortality (%) 8 h (8 h): 16% | C. felis Mortality (%) 24 h (24 h): 16%

CCC(=NNC(=O)c1ccc(Cl)cc1Cl)c1cc(Cl)ccc1NS(=O)(=O)C(F)(F)F [Compound 79]
C. felis Mortality (%) 8 h (8 h, data from laboratory 1): 14% | C. felis Mortality (%) 24 h (24 h, data from laboratory 1): 92%

CCC(=NNC(=O)c1ccccc1Cl)c1cc(Cl)ccc1NS(=O)(=O)C(F)(F)F [Compound 80]
C. felis Mortality (%) 8 h (8 h, data from laboratory 1): 17% | C. felis Mortality (%) 24 h (24 h, data from laboratory 1): 88%

O=S(=O)(Nc1ccc(Cl)cc1C(=NN1CCCCC1)c1ccccc1)C(F)(F)F [Compound 83]
C. felis Mortality (%) 8 h (8 h, data from laboratory 1): 15% | C. felis Mortality (%) 24 h (24 h, data from laboratory 1): 17%

O=S(=O)(Nc1ccc(Cl)cc1C(=NN1CCOCC1)c1ccccc1)C(F)(F)F [Compound 84]
C. felis Mortality (%) 8 h (8 h, data from laboratory 1): 9% | C. felis Mortality (%) 24 h (24 h, data from laboratory 1): 76%

CCOC(=O)NN=C(C)c1cc(Cl)ccc1NS(=O)(=O)C(F)(F)F [Compound 85]
C. felis Mortality (%) 8 h (8 h, data from laboratory 1): 3% | C. felis Mortality (%) 24 h (24 h, data from laboratory 1): 12%

CC(=NNC(=O)OC(C)(C)C)c1cc(Cl)ccc1NS(=O)(=O)C(F)(F)F [Compound 86]
C. felis Mortality (%) 8 h (8 h, data from laboratory 1): 4% | C. felis Mortality (%) 24 h (24 h, data from laboratory 1): 26%

CCC(=NNC(=O)OC)c1cc(Cl)ccc1NS(=O)(=O)C(F)(F)F [Compound 87]
C. felis Mortality (%) 8 h (8 h, data from laboratory 1): 7% | C. felis Mortality (%) 24 h (24 h, data from laboratory 1): 12%

CCOC(=O)NN=C(CC)c1cc(Cl)ccc1NS(=O)(=O)C(F)(F)F [Compound 88]
C. felis Mortality (%) 8 h (8 h, data from laboratory 1): 6% | C. felis Mortality (%) 24 h (24 h, data from laboratory 1): 25%

CCC(=NNC(=O)OC(C)(C)C)c1cc(Cl)ccc1NS(=O)(=O)C(F)(F)F [Compound 89]
C. felis Mortality (%) 8 h (8 h, data from laboratory 1): 6% | C. felis Mortality (%) 24 h (24 h, data from laboratory 1): 43%

CC(=NNC(=O)Nc1ccccc1)c1cc(Cl)ccc1NS(=O)(=O)C(F)(F)F [Compound 90, N-[2-[1-(4-phenyl)semicarbazono]ethyl-4-chlorophenyl]-trifluoromethanesulfonamide]
C. felis Mortality (%) 8 h: 3% | C. felis Mortality (%) 24 h: 18%

CC(=NNC(=O)Nc1ccccc1Cl)c1cc(Cl)ccc1NS(=O)(=O)C(F)(F)F [Compound 91]
C. felis Mortality (%) 8 h (8 h, data from laboratory 1): 10% | C. felis Mortality (%) 24 h (24 h, data from laboratory 1): 10%

CC(=NNC(=O)Nc1ccc(Cl)cc1)c1cc(Cl)ccc1NS(=O)(=O)C(F)(F)F [Compound 92]
C. felis Mortality (%) 8 h (8 h, data from laboratory 1): 8% | C. felis Mortality (%) 24 h (24 h, data from laboratory 1): 8%

O=S(=O)(Nc1ccc(Cl)cc1-c1ccn(-c2ccccc2)n1)C(F)(F)F [Compound 94]
C. felis Mortality (%) 8 h (8 h, data from laboratory 1): 6% | C. felis Mortality (%) 24 h (24 h, data from laboratory 1): 8%

O=S(=O)(Nc1ccc(Cl)cc1-c1cc[nH]n1)C(F)(F)F [Compound 95]
C. felis Mortality (%) 8 h (8 h, data from laboratory 1): 25% | C. felis Mortality (%) 24 h (24 h, data from laboratory 1): 83%

CCN(N=C(C)c1cc(Cl)ccc1NS(=O)(=O)C(F)(F)F)c1ccc(C)cc1 [Compound 101]
C. felis Mortality (%) 8 h (8 h, data from laboratory 1): 11% | C. felis Mortality (%) 24 h (24 h, data from laboratory 1): 90%

CC(=NN(c1ccc(C)cc1)C(C)C)c1cc(Cl)ccc1NS(=O)(=O)C(F)(F)F [Compound 102]
C. felis Mortality (%) 8 h (8 h, data from laboratory 1): 3% | C. felis Mortality (%) 24 h (24 h, data from laboratory 1): 90%

CCCN(N=C(C)c1cc(Cl)ccc1NS(=O)(=O)C(F)(F)F)c1cccc(Cl)c1 [Compound 106]
C. felis Mortality (%) 8 h (8 h, data from laboratory 1): 0% | C. felis Mortality (%) 24 h (24 h, data from laboratory 1): 25%

CC(=NN1CCCCCC1)c1cc(Cl)ccc1NS(=O)(=O)C(F)(F)F [Compound 107]
C. felis Mortality (%) 8 h (8 h, data from laboratory 1): 2% | C. felis Mortality (%) 24 h (24 h, data from laboratory 1): 23%
